Measured values reported in PMC3602154 (PLoS ONE, 2013).
Where two headings read alike, the source gives them in different places.

Columns and labels:
5-HT1D = 5-HT1D (Homo sapiens, UniProt P28221); experiment: PDSP radioligand binding, serotonin receptor 5-HT1D
Text: (§1) [17] and http://pdsp.med.unc.edu/UNC-CH%20Protocol%20Book.pdf.

5-HT2B = 5-HT2B (Homo sapiens, UniProt P41595); experiment: PDSP radioligand binding, serotonin receptor 5-HT2B
Text: as §1

5-HT6 = 5-HT6 (Homo sapiens, UniProt P50406); experiment: PDSP radioligand binding, serotonin receptor 5-HT6
Text: as §1

A3B4 = A3B4 (Rattus norvegicus, UniProt P04757+P12392); experiment: PDSP radioligand binding, nicotinic receptor α3 ß4
Text: as §1

A4B2 = A4B2 (Rattus norvegicus, UniProt P09483+P12390); experiment: PDSP radioligand binding, nicotinic receptor α4 ß2
Text: as §1

Alpha1B = molecular target: T1, Alpha1B (Homo sapiens, UniProt P35368); experiment: PDSP radioligand binding, adrenoceptor α1B
T1 sequence (P35368 1-520): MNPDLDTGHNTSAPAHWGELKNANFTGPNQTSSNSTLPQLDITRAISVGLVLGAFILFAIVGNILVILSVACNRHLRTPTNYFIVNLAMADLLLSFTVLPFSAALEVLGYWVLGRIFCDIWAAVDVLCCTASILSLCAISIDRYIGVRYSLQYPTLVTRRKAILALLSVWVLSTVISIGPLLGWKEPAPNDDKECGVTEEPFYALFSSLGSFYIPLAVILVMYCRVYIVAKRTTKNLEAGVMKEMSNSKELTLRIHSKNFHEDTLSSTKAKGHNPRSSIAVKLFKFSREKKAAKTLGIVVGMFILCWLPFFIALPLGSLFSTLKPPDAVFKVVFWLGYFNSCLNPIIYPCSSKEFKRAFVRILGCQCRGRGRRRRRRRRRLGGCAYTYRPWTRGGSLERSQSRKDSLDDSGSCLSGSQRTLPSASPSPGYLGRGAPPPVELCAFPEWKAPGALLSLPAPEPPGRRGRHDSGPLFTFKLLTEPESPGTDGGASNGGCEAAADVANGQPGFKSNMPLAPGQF
Text: as §1

Alpha2B = molecular target: T2, Alpha2B (Homo sapiens, UniProt P18089); experiment: PDSP radioligand binding, adrenoceptor α2B
T2 sequence (P18089 1-450): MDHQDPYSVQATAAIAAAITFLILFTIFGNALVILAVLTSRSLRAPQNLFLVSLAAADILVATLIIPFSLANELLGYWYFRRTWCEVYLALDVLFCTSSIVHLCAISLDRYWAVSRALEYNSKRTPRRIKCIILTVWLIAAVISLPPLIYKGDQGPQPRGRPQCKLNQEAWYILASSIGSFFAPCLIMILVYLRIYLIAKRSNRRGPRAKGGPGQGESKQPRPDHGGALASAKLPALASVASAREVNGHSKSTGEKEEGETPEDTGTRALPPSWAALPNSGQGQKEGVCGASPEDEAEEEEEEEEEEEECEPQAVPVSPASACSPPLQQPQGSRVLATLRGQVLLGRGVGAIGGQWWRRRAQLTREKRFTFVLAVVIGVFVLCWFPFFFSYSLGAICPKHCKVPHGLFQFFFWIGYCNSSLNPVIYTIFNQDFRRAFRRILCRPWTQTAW
Text: as §1

Alpha2C = molecular target: T3, Alpha2C (Homo sapiens, UniProt P18825); experiment: PDSP radioligand binding, adrenoceptor α2C
T3 sequence (P18825 1-462): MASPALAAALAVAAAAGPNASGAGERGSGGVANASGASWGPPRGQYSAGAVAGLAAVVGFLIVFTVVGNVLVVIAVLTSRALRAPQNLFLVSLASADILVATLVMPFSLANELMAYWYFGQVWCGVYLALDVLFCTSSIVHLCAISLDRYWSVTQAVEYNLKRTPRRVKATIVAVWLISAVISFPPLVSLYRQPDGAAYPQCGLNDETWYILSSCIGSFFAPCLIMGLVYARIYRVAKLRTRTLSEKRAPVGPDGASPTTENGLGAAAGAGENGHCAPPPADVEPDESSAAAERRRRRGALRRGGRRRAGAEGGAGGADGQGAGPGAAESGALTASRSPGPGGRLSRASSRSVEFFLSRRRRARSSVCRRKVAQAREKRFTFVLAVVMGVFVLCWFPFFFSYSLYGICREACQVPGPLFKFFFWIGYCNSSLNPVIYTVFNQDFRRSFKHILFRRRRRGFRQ
Text: as §1

Beta1 = Beta1 (Homo sapiens, UniProt P08588); experiment: PDSP radioligand binding, adrenoceptor ß1
Text: as §1

Beta2 = Beta2 (Homo sapiens, UniProt P07550); experiment: PDSP radioligand binding, adrenoceptor ß2
Text: as §1

Beta3 = Beta3 (Homo sapiens, UniProt P13945); experiment: PDSP radioligand binding, adrenoceptor ß3
Text: as §1

BZP Rat Brain Site = experiment: PDSP radioligand binding, benzodiazepine site on GABA-A; conditions: Table S1; unit inferred
Text: as §1

CB1 = CB1 (Homo sapiens, UniProt P21554); experiment: PDSP radioligand binding, cannabinoid CB-1
Text: as §1

D1 = D1 (Homo sapiens, UniProt P21728); experiment: PDSP radioligand binding, dopamine receptor D1
Text: as §1

D2 = D2 (Homo sapiens, UniProt P14416); experiment: PDSP radioligand binding, dopamine receptor D2
Text: as §1

D3 = D3 (Homo sapiens, UniProt P35462); experiment: PDSP radioligand binding, dopamine receptor D3
Text: as §1

DOR = DOR (Homo sapiens, UniProt P41143); experiment: PDSP radioligand binding, opioid receptor DOR
Text: as §1

H2 = H2 (Homo sapiens, UniProt P25021); experiment: PDSP radioligand binding, histamine receptor H2
Text: as §1

KOR = KOR (Homo sapiens, UniProt P41145); experiment: PDSP radioligand binding, opioid receptor KOR
Text: as §1

M3 = M3 (Homo sapiens, UniProt P20309); experiment: PDSP radioligand binding, muscarinic receptor M3
Text: as §1

[1] = molecular target: NMDA Receptor (MK-801 binding site); experiment: PDSP radioligand binding, NMDA receptor
Text: as §1

Sigma1 = Sigma1 (Homo sapiens, UniProt Q99720); experiment: PDSP radioligand binding, Sigma1
Text: as §1

[2] = Table 2, read-out: NMDA (Ki) (converted)

Sequence of Sigma1 (Q99720 whole entry): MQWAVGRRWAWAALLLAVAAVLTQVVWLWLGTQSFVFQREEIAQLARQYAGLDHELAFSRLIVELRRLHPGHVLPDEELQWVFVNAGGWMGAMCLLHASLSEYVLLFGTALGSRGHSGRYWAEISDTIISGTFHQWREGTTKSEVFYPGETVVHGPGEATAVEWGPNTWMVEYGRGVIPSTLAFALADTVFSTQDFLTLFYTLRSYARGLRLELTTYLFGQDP
Sequence of D1 (P21728 whole entry): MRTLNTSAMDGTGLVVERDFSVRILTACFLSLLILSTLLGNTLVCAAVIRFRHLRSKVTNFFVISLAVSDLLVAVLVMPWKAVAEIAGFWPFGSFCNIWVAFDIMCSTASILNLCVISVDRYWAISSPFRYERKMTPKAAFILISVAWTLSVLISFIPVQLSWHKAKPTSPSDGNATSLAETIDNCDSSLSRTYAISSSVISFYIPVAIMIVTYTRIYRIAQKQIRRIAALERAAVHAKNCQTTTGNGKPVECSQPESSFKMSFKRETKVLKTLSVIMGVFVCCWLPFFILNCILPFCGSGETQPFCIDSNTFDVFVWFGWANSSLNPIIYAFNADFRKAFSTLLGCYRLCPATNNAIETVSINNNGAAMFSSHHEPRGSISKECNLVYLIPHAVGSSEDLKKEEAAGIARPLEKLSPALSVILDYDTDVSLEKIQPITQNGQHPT
Sequence of H2 (P25021 whole entry): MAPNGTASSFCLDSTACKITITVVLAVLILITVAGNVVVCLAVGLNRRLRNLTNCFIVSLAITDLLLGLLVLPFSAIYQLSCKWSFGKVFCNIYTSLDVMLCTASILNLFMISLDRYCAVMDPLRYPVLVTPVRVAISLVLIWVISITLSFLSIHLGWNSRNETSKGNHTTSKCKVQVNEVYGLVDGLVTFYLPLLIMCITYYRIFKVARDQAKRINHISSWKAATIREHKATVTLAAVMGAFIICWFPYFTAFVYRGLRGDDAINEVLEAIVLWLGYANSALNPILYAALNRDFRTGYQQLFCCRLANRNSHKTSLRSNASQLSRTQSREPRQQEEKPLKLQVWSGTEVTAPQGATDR
Sequence of 5-HT2B (P41595 whole entry, species assumed): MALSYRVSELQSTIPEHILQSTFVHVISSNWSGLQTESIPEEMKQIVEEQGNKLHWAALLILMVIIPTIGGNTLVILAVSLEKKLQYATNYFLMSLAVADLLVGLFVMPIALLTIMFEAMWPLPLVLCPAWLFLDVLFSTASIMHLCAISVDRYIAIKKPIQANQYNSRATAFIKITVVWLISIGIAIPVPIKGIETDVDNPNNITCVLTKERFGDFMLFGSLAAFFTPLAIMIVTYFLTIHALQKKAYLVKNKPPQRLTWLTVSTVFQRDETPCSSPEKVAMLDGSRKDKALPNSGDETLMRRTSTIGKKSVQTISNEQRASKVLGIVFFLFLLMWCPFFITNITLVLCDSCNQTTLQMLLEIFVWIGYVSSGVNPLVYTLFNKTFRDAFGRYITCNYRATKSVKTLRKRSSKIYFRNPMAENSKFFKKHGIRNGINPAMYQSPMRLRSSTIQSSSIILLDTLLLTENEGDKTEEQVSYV
Sequence of M3 (P20309 whole entry): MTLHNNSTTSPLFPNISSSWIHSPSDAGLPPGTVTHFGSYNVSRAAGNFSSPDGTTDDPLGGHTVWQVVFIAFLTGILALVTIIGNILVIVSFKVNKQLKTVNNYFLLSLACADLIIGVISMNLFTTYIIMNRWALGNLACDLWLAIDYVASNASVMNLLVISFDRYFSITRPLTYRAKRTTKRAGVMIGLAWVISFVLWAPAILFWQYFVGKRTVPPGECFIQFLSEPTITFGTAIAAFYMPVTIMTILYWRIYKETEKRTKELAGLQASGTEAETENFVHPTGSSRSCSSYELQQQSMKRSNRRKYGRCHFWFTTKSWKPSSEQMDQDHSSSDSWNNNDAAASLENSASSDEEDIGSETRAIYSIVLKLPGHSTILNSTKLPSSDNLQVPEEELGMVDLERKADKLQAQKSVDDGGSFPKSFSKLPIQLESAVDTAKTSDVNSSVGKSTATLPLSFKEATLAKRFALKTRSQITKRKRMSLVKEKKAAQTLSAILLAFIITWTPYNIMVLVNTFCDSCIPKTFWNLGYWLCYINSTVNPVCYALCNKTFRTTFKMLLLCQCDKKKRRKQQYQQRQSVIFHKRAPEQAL
Sequence of Beta1 (P08588 whole entry): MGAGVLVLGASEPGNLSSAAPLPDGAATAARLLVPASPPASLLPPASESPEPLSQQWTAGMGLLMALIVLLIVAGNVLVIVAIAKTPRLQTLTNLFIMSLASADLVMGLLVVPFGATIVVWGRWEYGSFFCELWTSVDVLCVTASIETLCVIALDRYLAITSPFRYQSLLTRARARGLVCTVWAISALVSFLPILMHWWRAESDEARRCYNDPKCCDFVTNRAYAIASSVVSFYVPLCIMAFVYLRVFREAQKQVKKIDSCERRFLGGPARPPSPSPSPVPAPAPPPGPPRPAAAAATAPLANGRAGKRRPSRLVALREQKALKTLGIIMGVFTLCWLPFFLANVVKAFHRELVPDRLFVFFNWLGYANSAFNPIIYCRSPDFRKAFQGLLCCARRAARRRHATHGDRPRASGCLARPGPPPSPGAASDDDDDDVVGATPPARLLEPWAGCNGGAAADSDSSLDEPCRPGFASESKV
Sequence of 5-HT1D (P28221 whole entry, species assumed): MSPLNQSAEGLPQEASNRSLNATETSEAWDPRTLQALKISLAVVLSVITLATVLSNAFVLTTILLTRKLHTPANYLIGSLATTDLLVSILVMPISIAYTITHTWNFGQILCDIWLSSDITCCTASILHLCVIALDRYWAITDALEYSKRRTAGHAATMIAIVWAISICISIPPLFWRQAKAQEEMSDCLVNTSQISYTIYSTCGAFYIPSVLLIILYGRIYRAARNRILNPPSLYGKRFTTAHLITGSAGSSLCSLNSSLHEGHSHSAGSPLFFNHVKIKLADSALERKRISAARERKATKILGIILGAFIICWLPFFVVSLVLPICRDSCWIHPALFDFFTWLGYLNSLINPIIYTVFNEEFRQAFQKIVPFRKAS
Sequence of Beta3 (P13945 whole entry): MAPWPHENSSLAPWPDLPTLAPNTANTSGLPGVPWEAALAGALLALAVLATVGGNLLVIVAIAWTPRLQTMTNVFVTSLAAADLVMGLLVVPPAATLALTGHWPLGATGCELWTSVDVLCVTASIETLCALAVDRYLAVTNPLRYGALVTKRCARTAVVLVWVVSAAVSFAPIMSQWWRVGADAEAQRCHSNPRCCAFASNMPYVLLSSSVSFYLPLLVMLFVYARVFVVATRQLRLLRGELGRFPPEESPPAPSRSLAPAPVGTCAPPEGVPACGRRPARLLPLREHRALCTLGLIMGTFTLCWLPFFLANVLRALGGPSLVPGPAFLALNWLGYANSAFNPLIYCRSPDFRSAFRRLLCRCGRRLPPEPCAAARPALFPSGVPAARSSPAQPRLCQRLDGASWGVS
Sequence of CB1 (P21554 whole entry, species assumed): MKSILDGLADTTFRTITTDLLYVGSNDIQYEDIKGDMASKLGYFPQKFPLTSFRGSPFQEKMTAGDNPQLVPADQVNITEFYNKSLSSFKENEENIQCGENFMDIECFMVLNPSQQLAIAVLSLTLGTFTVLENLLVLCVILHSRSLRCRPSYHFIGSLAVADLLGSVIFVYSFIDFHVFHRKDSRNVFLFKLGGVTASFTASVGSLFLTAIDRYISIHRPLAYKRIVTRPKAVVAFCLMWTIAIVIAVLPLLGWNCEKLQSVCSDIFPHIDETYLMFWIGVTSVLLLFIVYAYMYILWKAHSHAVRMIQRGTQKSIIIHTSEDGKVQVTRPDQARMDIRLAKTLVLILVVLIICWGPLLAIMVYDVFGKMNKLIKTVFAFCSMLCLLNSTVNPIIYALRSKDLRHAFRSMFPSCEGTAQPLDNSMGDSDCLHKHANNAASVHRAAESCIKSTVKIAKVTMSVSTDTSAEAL
Sequence of A4B2 (P09483 31-630): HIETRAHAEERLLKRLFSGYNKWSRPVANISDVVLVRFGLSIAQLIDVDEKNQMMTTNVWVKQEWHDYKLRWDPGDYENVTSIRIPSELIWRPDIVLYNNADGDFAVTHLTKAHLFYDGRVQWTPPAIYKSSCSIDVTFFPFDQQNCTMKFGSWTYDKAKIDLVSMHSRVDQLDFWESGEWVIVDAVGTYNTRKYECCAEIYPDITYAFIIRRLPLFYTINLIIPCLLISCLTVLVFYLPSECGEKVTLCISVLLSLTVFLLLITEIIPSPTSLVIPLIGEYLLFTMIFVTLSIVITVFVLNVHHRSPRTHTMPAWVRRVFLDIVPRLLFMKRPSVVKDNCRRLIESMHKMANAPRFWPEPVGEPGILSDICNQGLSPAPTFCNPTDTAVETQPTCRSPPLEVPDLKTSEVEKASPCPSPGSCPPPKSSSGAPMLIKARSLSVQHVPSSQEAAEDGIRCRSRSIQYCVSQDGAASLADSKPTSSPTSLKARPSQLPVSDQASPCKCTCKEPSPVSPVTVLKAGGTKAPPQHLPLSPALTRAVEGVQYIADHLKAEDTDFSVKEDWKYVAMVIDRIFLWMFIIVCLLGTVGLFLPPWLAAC
Sequence of A4B2 (P12390 25-500): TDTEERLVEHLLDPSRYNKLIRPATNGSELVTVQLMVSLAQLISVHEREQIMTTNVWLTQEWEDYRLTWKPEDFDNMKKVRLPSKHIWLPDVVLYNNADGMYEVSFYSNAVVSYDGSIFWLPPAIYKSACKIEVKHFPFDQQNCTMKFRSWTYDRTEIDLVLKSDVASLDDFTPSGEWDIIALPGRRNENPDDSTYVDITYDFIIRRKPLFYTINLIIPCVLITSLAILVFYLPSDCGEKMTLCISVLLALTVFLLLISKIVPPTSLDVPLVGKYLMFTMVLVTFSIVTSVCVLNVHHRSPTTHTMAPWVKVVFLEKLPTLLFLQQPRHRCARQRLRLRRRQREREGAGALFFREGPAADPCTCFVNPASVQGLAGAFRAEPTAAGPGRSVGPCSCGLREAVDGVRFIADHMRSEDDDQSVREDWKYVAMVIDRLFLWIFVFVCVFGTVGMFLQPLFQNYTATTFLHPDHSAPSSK

Row | SMILES | Ki (5-HT1D) [µM] | Ki (5-HT2B) [µM] | Ki (5-HT6) [µM] | Ki (A3B4) [µM] | Ki (A4B2) [µM] | Ki (Alpha1B) [µM] | Ki (Alpha2B) [µM] | Ki (Alpha2C) [µM] | Ki (Beta1) [µM] | Ki (Beta2) [µM] | Ki (Beta3) [µM] | Ki (BZP Rat Brain Site) [µM] | Ki (CB1) [µM] | Ki (D1) [µM] | Ki (D2) [µM] | Ki (D3) [µM] | Ki (DOR) [µM] | Ki (H2) [µM] | Ki (KOR) [µM] | Ki (M3) [µM] | also measured
1 | CCNC1(c2cccc(OC)c2)CCCCC1=O (racemic) [Methoxetamine, (RS)-2-(ethylamino)-2-(3-methoxyphenyl)cyclohexanone] | > 10 | > 10 | > 10 | > 10 | > 10 | > 10 | > 10 | > 10 | > 10 | > 10 | > 10 | > 10 | > 10 | > 10 | > 10 | > 10 | > 10 | > 10 | > 10 | > 10 | Ki ([1]; Figure 3, N = 3 separate determinations, read-out: Ki in NMDA receptor assay): 0.337 µM; Ki ([1]; Table S1, unit inferred, read-out: Ki NMDA): 0.338 µM; Ki (Sigma1): > 10 µM; inhibition at 10 µM (Sigma1; 10 µM, quadruplicate, read-out: Sigma1 Primary Screen inhibition of binding): < 50%
2 | COc1cccc(C2(N3CCCCC3)CCCCC2)c1 [3-MeO-PCP, 1-[1-(3-methoxyphenyl)cyclohexyl]piperidine] | > 10 | > 10 | > 10 | > 10 | > 10 | > 10 | > 10 | > 10 | > 10 | > 10 | > 10 | > 10 | > 10 | > 10 | > 10 | > 10 | > 10 | 2.1 | > 10 | > 10 | NMDA pKi +/− SD ([1]; Table 2): 7.69±0.08; Ki [1, 2]: 0.02 µM; Ki (Sigma1): 0.042 µM
3 | COc1ccc(C2(N3CCCCC3)CCCCC2)cc1 [4-MeO-PCP, 1-[1-(4-methoxyphenyl)cyclohexyl]piperidine] | > 10 | > 10 | > 10 | > 10 | > 10 | > 10 | > 10 | > 10 | > 10 | > 10 | > 10 | > 10 | > 10 | > 10 | > 10 | > 10 | > 10 | > 10 | > 10 | > 10 | NMDA pKi +/− SD ([1]; Table 2): 6.39±0.06; Ki [1, 2]: 0.404 µM; Ki (Sigma1): 0.296 µM
